Laboratory results taken from patent publication US8759535B2, “Substituted fused imidazole derivatives, pharmaceutical compositions, and methods of use thereof” (High Point Pharmaceuticals, LLC, priority 2010, dated 2014).

These molecules were tested on HMOX1 (assay: HMOX1 Protein Assay (immunostaining of HO-1 in NHLF cells, GE InCell 1000)). Conditions: Homo sapiens, fold change above DMSO treated cells, 3 μM compound (asterisk), 16 h.
Format: cell-based
Outline: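 Fold induction of HO-1 over vehicle, normally at 5 μM compound (asterisk marks 3 μM), in 0.8% DMSO medium. Normal human lung fibroblasts were treated 16 h, then paraformaldehyde-fixed, anti-HO-1/Alexa 488 stained with Hoechst, and read by high-content imaging.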

Going from `C[C@@H](NC(=O)c1ccc2c(c1)nc(Nc1nc3ccc(C(F)(F)F)cc3s1)n2C)C(=O)N(C)C` [Example 468, 1-Methyl-2-(6-trifluoromethyl-benzothiazol-2-ylamino)-1H-benzoimidazole-5-carboxylic acid ((R)-1-dimethylcarbamoyl-ethyl)-amide] to `C[C@@H](NC(=O)c1ccc2c(c1)nc(Nc1nc3ccc(C(F)(F)F)cc3s1)n2C)C(=O)N1CCN(C)CC1` [Example 470, 1-Methyl-2-(6-trifluoromethyl-benzothiazol-2-ylamino)-1H-benzoimidazole-5-carboxylic acid [(R)-1-methyl-2-(4-methyl-piperazin-1-yl)-2-oxo-ethyl]-amide], the fold induction at 3 µM falls from 26.3 to 24.5.

First: C[C@@H](NC(=O)c1ccc2c(c1)nc(Nc1nc3ccc(Cl)cc3s1)n2C)C(=O)N1CCN(C)CC1 [Example 469, 2-(6-Chloro-benzothiazol-2-ylamino)-1-methyl-1H-benzoimidazole-5-carboxylic acid [(R)-1-methyl-2-(4-methyl-piperazin-1-yl)-2-oxo-ethyl]-amide]
Second: C[C@@H](NC(=O)c1ccc2c(c1)nc(Nc1nc3ccc(Cl)cc3s1)n2C)C(=O)N1CCOCC1 [Example 471, 2-(6-Chloro-benzothiazol-2-ylamino)-1-methyl-1H-benzoimidazole-5-carboxylic acid ((R)-1-methyl-2-morpholin-4-yl-2-oxo-ethyl)-amide]
The fold induction at 3 µM of the first is higher: 26.1 for the first, 17.4 for the second.

Molecule `C[C@@H](NC(=O)c1ccc2c(c1)nc(Nc1nc3ccc(C(F)(F)F)cc3s1)n2C)C(=O)N1CCOCC1` [Example 472, 1-Methyl-2-(6-trifluoromethyl-benzothiazol-2-ylamino)-1H-benzoimidazole-5-carboxylic acid ((R)-1-methyl-2-morpholin-4-yl-2-oxo-ethyl)-amide] has a fold induction at 3 µM of 23.
